The target of this test is T1, GzmB (Homo sapiens, UniProt P10144).
T1 construct: purchased Froelich Lab, Northshore University Health Systems Research Institute, Evanston, Ill., USA
Nature of the test: Inhibition of Fibronectin Cleavage by GzmB (Example D7). To be noted: 20 nM granzyme B, 30° C.; for inhibition at 0.62 µM: inhibitor 0.62 uM, read-out: Percent Inhibition at Inhibitor Concentration 0.62 uM; for inhibition at 5.56 µM: inhibitor 5.56 uM, read-out: Percent Inhibition at Inhibitor Concentration 5.56 uM; for inhibition at 50 µM: inhibitor 50 uM, read-out: Percent Inhibition at Inhibitor Concentration 50 uM. In kind it is biochemical. As for the experimental part: Black, 96 well high-binding assay plates (Griener Bio-one) were treated overnight at 4° C. with 40 uL of 8 ug/mL Hilyte Fluor 488 labeled Fibronectin (Cytoskeleton, Inc). After fibronectin coating, plates were washed 3 times in buffer (20 mM Tris-HCl, pH 7.4, 20 mM NaCl) then once with granzyme B assay buffer (50 mM HEPES, pH 7.5, 0.1% CHAPS). After washing, 50 uL of granzyme B assay buffer was added to each fibronectin-coated well. In a separate non-binding 96 well assay plate 5 uL of 20X inhibitor serial dilution stocks were added to 45 uL of 2.22x GzmB mix to establish inhibition (enzyme/inhibitor mixes were all prepared in granzyme B assay buffer and were incubated first at room temperature for 20 minutes, then at 30° C. for another 10 minutes). After incubation, 50 uL of this 2x enzyme/inhibitor mix was added to the corresponding coated well to initiate fibronectin cleavage (20 nM final granzyme B concentration, 8-point inhibitor dilution series starting at 50 uM). The assay was conducted at 30° C. in the TECAN plate reader (TECAN INFINITE® M1000 Pro), which was programmed to monitor the kinetic fluorescence polarization signal (filter set Ex/Em 470 nm/527 nm) with readings taken every minute, for 1 hour. Proteolytic activity was evaluated as the rate of fluorescence enhancement in the parallel emission over the linear range of the reaction. % Inhibition values were calculated from assay controls and the resulting data is shown in Table 6.

T1 sequence (P10144 21-247): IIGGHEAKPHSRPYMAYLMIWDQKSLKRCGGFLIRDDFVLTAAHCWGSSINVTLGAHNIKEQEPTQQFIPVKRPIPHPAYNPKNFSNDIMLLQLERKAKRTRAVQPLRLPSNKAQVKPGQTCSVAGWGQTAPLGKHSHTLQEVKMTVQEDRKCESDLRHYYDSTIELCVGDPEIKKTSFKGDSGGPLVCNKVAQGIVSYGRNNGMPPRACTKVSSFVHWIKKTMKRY

Regarding `CC[C@H](C)[C@H](NC(=O)CCC(=O)O)C(=O)NCC(=O)N1C(=O)NC[C@H]1C(=O)NCc1nn[nH]n1` [Compound C1, 4-(((2S,3S)-1-((2-((S)-5-(((2H-tetrazol-5-yl)methyl)carbamoyl)-2-oxoimidazolidin-1-yl)-2-oxoethyl)amino)-3-methyl-1-oxopentan-2-yl)amino)-4-oxobutanoic acid], the inhibition at 0.62 µM amounted to 39%, the inhibition at 5.56 µM was 69% and the inhibition at 50 µM is 86%.

On to `CC[C@H](C)[C@H](NC(=O)CCC(=O)O)C(=O)NCC(=O)N1C(=O)N(C2CCCCC2)C[C@H]1C(=O)NCc1nn[nH]n1` [Compound C2, 4-(((2S,3S)-1-((2-((S)-5-(((2H-TETRAZOL-5-YL)METHYL)CARBAMOYL)-3-CYCLOHEXYL-2-OXOIMIDAZOLIDIN-1-YL)-2-OXOETHYL)AMINO)-3-METHYL-1-OXOPENTAN-2-YL)AMINO)-4-OXOBUTANOIC ACID], for which the inhibition at 0.62 µM stood at 75%, the inhibition at 5.56 µM was 91% and the inhibition at 50 µM is 96%.
